Results from article PMC7617459, “Comparative Evaluation and Profiling of Chemical Tools for the Nuclear Hormone Receptor Family 2” (ACS pharmacology & translational science, 2025).
Read-outs that look alike come from different tables or passages of the source.

Legend:
HNF4α [1] = target: HNF4α; set-up: method as in PMID 22840769; conditions: cited from earlier work
HNF4α [2] = target: T1, HNF4α (Homo sapiens, UniProt P41235); assay: Gal4-hybrid reporter gene assay HNF4α; conditions: 3 µM, HEK293T
T1 sequence (P41235 147-377 limits assumed): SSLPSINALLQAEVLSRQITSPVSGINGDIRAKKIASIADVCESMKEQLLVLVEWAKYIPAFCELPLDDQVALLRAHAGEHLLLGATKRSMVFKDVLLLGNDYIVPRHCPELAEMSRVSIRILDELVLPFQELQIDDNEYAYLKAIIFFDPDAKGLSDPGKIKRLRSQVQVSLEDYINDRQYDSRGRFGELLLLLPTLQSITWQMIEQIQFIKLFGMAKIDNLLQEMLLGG

human insulin promoter = conditions: insulin promoter assay, cited from earlier work
[3] = system: HNF4α and a set of its target genes; set-up: method as in PMID 22840769; conditions: T6PNE cells; cited from earlier work
[4] = set-up: method as in PMID 31298602, PMID 30702885; conditions: cited from earlier work
[5] = cited from earlier work
TLX [6] = conditions: reporter gene assay; read-out: EC50; cited from earlier work
TLX [7] = target: T2, TLX (Homo sapiens, UniProt Q9Y466); assay: Gal4-hybrid reporter gene assay TLX; assay type: cell-based; conditions: selected test concentration (Figure 3)
T2 construct: encoding the hinge region and the LBD of the canonical isoform of the respective human nuclear receptors; expressed in transfected cells; host or cells: HEK293T
T2 sequence (Q9Y466 155-383 limits assumed): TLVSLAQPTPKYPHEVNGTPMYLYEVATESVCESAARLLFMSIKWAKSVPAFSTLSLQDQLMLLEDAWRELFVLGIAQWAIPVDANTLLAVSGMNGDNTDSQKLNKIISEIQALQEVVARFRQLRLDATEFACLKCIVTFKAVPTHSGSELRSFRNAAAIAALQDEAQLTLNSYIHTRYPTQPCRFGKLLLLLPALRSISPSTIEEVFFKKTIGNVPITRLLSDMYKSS

TLX expression = conditions: cited from earlier work
TLX [8] = conditions: DSF assays; cited from earlier work
[9] = microsomes; cited from earlier work
TLX-regulated genes = conditions: human glioblastoma cells (T98G), qRT-PCR; cited from earlier work
HEK293T cells = conditions: cited from earlier work
COS-7 cells = assay: Multiplex toxicity assay; assay type: cell-based; conditions: 24 h, at active concentration
Description: COS-7 cells (DSMZ #ACC 60) were cultured at 37°C and 5% CO2 in DMEM high glucose medium supplemented with sodium pyruvate (1 mM), penicillin (100 U/mL), streptomycin (100 µg/mL), and 10% fetal calf serum (FCS). After aspirating the wells, the cells were seeded at 1x10^5 cells per well in complete culture medium. […] Each sample was prepared in at least 4 biologically independent replicates. After incubation for 24 h, the wells were aspirated and incubated for 30 min with stimulation medium containing 1 µM NucView® 405 fluorogenic caspase-3 substrate (#10405, Biotium, Fremont, USA) and Live-or-Dye Nuc-Fix Red (0.05x, Biotium, Inc., Fremont, CA, 1691 USA) to detect apoptosis and necrosis, respectively. After incubation, a total of 6 fluorescence images per well at 10x magnification were taken to detect NucView®-positive (Ex: 381–400 nm, Em: 414–450 nm) and Live-or-Dye-positive cells (Ex: 543−566 nm, Em: 580−611 nm) using on a Tecan Spark Cyto (Tecan Group AG). Reference readings for background correction and detection of auto-fluorescence were taken at 414–450 nm prior to staining. Thereafter, wells were aspirated, the cells were incubated for 3 h with 90 µL culture medium (0.2% FCS) and 10 µL Cell Counting Kit-8 solution (CCK-8, MedChem Express #HY-K0301), and absorbance was measured at 1, 2, and 3h of incubation at 450 nm on a Tecan Spark Cyto to assess metabolic activity of the cells. Before drug administration, after the first medium exchange, 24 h after drug administration, and after fluorescence imaging cell confluence was assessed using the Tecan Spark Cyto, to account for changes in cell confluence due to drug administration and cell handling. The number of apoptotic cells, metabolic activity, and changes in cell confluence in response to drug treatment were all normalized to the vehicle control of each biological replicate individually.

PNR [10] = conditions: reporter gene assay; cited from earlier work
nuclear receptors = assay: Selectivity profiling in Gal4-hybrid reporter gene assay panel; assay type: cell-based, human; conditions: at active concentration
Description: Compounds were tested at concentrations around EC90 according to the literature or at the highest nontoxic concentration (from the multiplex toxicity assay). […] (b) Selectivity profiling of NR2 modulators in a representative panel of nuclear receptors outside the NR2 family. […] Effects <5% of the respective reference ligands were considered as not relevant and omitted. Only effects are shown that are statistically significant against VP16 ctrl (Figure S3); n = 3.

rhodopsin expression = system: rhodopsin expression; set-up: method as in PMID 29148976, PMID 27893103; conditions: cited from earlier work; for rhodopsin expression: murine retinal cells, immunofluorescence and qRT-PCR
Gal4-VP16 = system: Gal4-VP16; set-up: method as in PMID 16834531; conditions: cited from earlier work
PNR (NR2E3) = target: T3, PNR (NR2E3) (Homo sapiens, UniProt Q9Y5X4); assay: Gal4-hybrid reporter gene assay PNR; assay type: cell-based; conditions: selected test concentration (Figure 3)
T3 construct: encoding the hinge region and the LBD of the canonical isoform of the respective human nuclear receptors; expressed in transfected cells; host or cells: HEK293T
T3 sequence (Q9Y5X4 169-410 limits assumed): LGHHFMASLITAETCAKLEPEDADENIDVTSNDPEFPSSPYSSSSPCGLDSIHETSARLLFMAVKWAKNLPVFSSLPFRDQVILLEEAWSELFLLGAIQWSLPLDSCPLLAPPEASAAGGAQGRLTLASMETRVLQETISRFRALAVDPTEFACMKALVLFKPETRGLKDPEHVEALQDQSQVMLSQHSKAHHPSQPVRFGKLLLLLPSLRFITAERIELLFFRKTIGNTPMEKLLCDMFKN
Description: Gal4-hybrid reporter gene assays were performed as described previously using the plasmids pFA-CMV-hTHRα-LBD,[170] pFA-CMV-hRARα-LBD,[171] pFA-CMV-hPPARα-LBD,[172] pFA-CMV-hPPARγ-LBD,[172] pFA-CMV-hPPARδ-LBD,[172] pFA-CMV-revERBα-LBD,[158] pFA-CMV-hRORα-LBD,[173] pFA-CMV-hLXRα-LBD,[118] pFA-CMV-hFXR-LBD,[174] pFA-CMV-hVDR-LBD,[171] pFA-CMV-hCAR-LBD,[171] pFA-CMV-hHNF4α-LBD,[110] pFA-CMV-hRXRα-LBD,[175] pFA-CMV-hTR2-LBD,[102] pFA-CMV-hTR4-LBD,[102] pFA-CMV-hTLX-LBD,[102] pFA-CMV-hNR2E3-LBD,[102] pFA-CMV-hNur77-LBD,[176] pFA-CMV-hSF1-LBD[158] encoding the hinge region and the LBD of the canonical isoform of the respective human nuclear receptors. pFR-Luc (Stratagene, La Jolla, CA, USA) was used as a reporter plasmid, and pRL-SV40 (Promega, Madison, WI, USA) was used for normalization of transfection efficiency and cell growth. HEK293T cells (German Collection of Microorganisms and Cell Culture GmbH, DSMZ) were cultured in Dulbecco’s modified Eagle’s medium (DMEM), high glucose supplemented with 10% fetal calf serum (FCS), sodium pyruvate (1 mM), penicillin (100 U/mL), and streptomycin (100 μg/mL) at 37 °C and 5% CO2 and seeded in 96-well plates (3 × 10^4 cells/well). The medium was changed to Opti-MEM without supplements, and the cells were transiently transfected with one pFA-CMV-hNR-LBD clone, pFR-Luc, and pRL-SV40 using Lipofectamine LTX reagent (Invitrogen, Thermo Fisher Scientific) according to the manufacturer’s instructions. Five hours after transfection, cells were incubated with the test compounds in Opti-MEM supplemented with penicillin (100 U/mL), streptomycin (100 μg/mL), and 0.1% DMSO. Each sample was set up in duplicates and tested in at least three independent experiments. After 16 h incubation, luciferase activity was measured using the Dual-Glo Luciferase Assay System (Promega) according to the manufacturer’s protocol on a Tecan Spark luminometer (Tecan Deutschland GmbH, Crailsheim, Germany). Firefly luminescence was divided by Renilla luminescence and multiplied by 1000 resulting in relative light units (RLUs) to normalize for transfection efficiency and cell growth. Fold activation was obtained by dividing the mean RLU of the test compound by the mean^a RLU of the untreated control, and relative activation was calculated by dividing the fold activation of a test sample by the fold activation of the respective reference agonist. Antagonistic effects were evaluated by coincubation of the test compound with the respective reference ligand.

ATF6 = ATF6 activity assay; assay type: cell-based; conditions: tunicamycin treated Hela ATF6 reporter cells
From the text: Next, we evaluated the potential impact of the NR2 modulator set on endoplasmic reticulum (ER) stress in an ATF6 activity assay (Fig. 4b). The activating transcription factor 6 (ATF6) participates in the unfolded protein response and is activated under ER stress.[164] Tunicamycin-induced ATF6 activity was not affected by RXR and TLX modulators but was reduced by the inverse PNR agonists 22 and 23.
Hela cells containing a Renilla luciferase reporter gene for ATF6 activity (ATF6 Leeporter™ Luciferase Reporter-HeLa Cell Line, Abeomics Inc.; #14-138ACL) were cultured in DMEM supplemented with 10% heat-inactivated FCS, penicillin (100 U/mL), streptomycin (100 μg/mL) and puromycin (3 µg/mL) at 37°C and 5% (v/v) CO2 and seeded in 96-well plates (1 × 10^5 per well). After 24 h, the cells were incubated with the test compounds solubilized with 0.1% DMSO in the same medium without puromycin. After 4 h of incubation, tunicamycin (100 ng/mL) was added. After another 18 h of incubation, cells were assayed for renilla luminescence using DualGlo reagent (Promega) on a Tecan SPARK Cyto (Tecan). Test samples were normalized to the 0.1% DMSO control.

PNR [11] = target: PNR; set-up: method as in PMID 29148976; conditions: ITC, cited from earlier work
NR2E3 = system: NR2E3; set-up: method as in PMID 16879962; conditions: reporter gene assay, cited from earlier work
COUP-TF2 = system: COUP-TF2; set-up: method as in PMID 32494682; conditions: reporter gene assay; cited from earlier work
[12] = system: COUP-TF2 target genes FOXM1 and CDK1; set-up: method as in PMID 32494682; conditions: prostate cancer cells; cited from earlier work
[13] = system: HNF4α, RXRα, PPARα, LXRα, GR, PR, ER, RAR, RORγ, AR, and COUP-TF1; set-up: method as in PMID 32494682; conditions: cited from earlier work

## Cc1nc2ccccc2n1S(=O)(=O)c1cc([N+](=O)[O-])ccc1Cl [compound 1]
HNF4α [1]; Try/Trp fluorescence quenching assays
  Kd: 12 nM
HNF4α [1]; direct binding, read-out: EC50 of quenching of intrinsic Tyr/Trp fluorescence of HNF4α
  EC50: 11.9 nM
HNF4α [2]
  effects on HNF4 activity: no effects
Human insulin promoter
  IC50: 900 nM
Human insulin promoter; listed as BIM5078 (1)
  IC50: 930 nM
[3]
  expression of HNF4α and a set of its target genes: suppress the expression

## C=C(c1ccc(C(=O)O)cc1)c1cc2c(cc1C)C(C)(C)CCC2(C)C [compound 6, bexarotene]
[4]
  lipophilicity: highly lipophilic
[5]
  adverse effects associated with clinical use: elevated triglyceride and cholesterol levels, leukopenia, hypothyroidism, and an increased risk of acute pancreatitis

## Cc1cc(C(=O)N2CCN(C(c3ccccc3)c3ccccc3)CC2)nn1C [compound 15]
TLX [6]
  EC50: 1000 nM
TLX [7]
  TLX modulation: not observed
TLX expression
  TLX expression: not affected
TLX [8]
  Kd: 650 nM
[9]
  t1/2 against microsomal degradation: < 15 min
TLX-regulated genes
  SIRT, SLC1a1 and p21 induction: trend toward SIRT and SLC1a1 but not p21 induction
HEK293T cells
  toxicity in WST-1 assay: Low toxicity

## Cc1cc(C)cc(NC(=O)CCc2nc3sc4c(c3c(=O)[nH]2)CCCC4)c1 [compound 22]
COS-7 cells
  cytotoxicity: lack of cytotoxicity
PNR [10]
  IC50: 250 nM
Nuclear receptors
  selectivity over other nuclear receptors: Favorable selectivity profiles
Rhodopsin expression
  rhodopsin expression: dose-dependent reduction
Gal4-VP16
  activity in control experiments using Gal4-VP16: inactive
PNR (NR2E3)
  PNR modulation: confirmed albeit with rather low efficacy
ATF6
  tunicamycin-induced ATF6 activity: reduced

## COc1cc2nc(CN3CC=C(c4ccccc4)CC3)nc(O)c2cc1OC [compound 23]
COS-7 cells
  cytotoxicity: lack of cytotoxicity
PNR [11]
  Kd: 67000 nM
PNR [11]; listed as Photoregulin3 (23)
  Kd: 64000 nM
PNR [10]
  IC50: 70 nM
Nuclear receptors
  selectivity over other nuclear receptors: Favorable selectivity profiles
Rhodopsin expression
  Rho mRNA expression: decreased
  rhodopsin expression: dose-dependent reduction
Gal4-VP16
  activity in control experiments using Gal4-VP16: inactive
PNR (NR2E3)
  PNR modulation: confirmed albeit with rather low efficacy
ATF6
  tunicamycin-induced ATF6 activity: reduced

## O=C(Nc1ccc(-c2nc3ccc(NC(=O)C4CC4)cc3[nH]2)cc1)c1ccccc1Cl [compound 24]
NR2E3; read-out: EC50 (first value of cell)
  EC50: 141 nM
NR2E3; read-out: EC50 (second value of cell)
  EC50: 35 nM

## COc1ccc(CCNc2ncnc3sccc23)cc1OC [compound 28]
COUP-TF2
  IC50: 2800 nM
[12]
  expression of COUP-TF2 target genes FOXM1 and CDK1: altered expression
[13]
  interaction with related NRs in pulldown assay: no relevant interaction
